Assays:
TYRO3 = molecular target: T1, TYRO3 (Homo sapiens, UniProt Q06418); experiment: TR-FRET kinase activity assay, TYRO3; format: biochemical; details: ATP at Km, 60 minutes
T1 sequence (Q06418 41-890): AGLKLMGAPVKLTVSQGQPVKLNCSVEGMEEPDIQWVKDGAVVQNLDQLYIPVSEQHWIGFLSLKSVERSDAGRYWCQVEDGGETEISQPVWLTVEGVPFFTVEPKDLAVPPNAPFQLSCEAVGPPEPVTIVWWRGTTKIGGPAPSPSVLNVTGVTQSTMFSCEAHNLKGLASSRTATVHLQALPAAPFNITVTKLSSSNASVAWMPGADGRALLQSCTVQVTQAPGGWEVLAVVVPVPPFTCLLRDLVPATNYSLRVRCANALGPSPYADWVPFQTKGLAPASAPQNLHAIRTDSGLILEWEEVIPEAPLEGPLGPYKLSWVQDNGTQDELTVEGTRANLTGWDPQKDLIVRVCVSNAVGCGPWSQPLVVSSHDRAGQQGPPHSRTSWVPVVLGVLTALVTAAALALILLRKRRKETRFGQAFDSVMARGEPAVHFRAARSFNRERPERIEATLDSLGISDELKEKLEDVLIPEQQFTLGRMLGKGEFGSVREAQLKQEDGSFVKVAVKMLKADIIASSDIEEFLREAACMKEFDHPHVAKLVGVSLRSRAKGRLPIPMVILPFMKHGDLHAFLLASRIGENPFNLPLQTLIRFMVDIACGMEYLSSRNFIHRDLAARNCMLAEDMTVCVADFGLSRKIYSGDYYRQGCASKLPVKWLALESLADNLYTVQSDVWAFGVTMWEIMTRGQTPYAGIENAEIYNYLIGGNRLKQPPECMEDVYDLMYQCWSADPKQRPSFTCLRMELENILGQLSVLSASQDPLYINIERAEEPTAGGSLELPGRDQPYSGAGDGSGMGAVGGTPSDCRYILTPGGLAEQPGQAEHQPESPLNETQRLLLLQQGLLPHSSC
How it was run: (§1)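 Each kinase phosphorylates a fluorescently labeled peptide on tyrosine in the presence of compound, with ATP at its Km, for 60 min at RT in HEPES pH 7.5 buffer with MgCl2, EGTA, Brij 35 and DTT. Product is detected by TR-FRET with a Europium-labeled phospho-specific antibody; IC50 values follow.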

MERTK = molecular target: T2, MERTK (Homo sapiens, UniProt Q12866); experiment: TR-FRET kinase activity assay, MERTK; format: biochemical; details: for IC50: TR-FRET activity assay, ATP at Km, 60 minutes, read-out: Mer IC50; for Mer/Flt3 ratio (FLT3 IC50/Mer IC50): ratio calculated as FLT3 IC50/Mer IC50
T2 sequence (Q12866 21-999): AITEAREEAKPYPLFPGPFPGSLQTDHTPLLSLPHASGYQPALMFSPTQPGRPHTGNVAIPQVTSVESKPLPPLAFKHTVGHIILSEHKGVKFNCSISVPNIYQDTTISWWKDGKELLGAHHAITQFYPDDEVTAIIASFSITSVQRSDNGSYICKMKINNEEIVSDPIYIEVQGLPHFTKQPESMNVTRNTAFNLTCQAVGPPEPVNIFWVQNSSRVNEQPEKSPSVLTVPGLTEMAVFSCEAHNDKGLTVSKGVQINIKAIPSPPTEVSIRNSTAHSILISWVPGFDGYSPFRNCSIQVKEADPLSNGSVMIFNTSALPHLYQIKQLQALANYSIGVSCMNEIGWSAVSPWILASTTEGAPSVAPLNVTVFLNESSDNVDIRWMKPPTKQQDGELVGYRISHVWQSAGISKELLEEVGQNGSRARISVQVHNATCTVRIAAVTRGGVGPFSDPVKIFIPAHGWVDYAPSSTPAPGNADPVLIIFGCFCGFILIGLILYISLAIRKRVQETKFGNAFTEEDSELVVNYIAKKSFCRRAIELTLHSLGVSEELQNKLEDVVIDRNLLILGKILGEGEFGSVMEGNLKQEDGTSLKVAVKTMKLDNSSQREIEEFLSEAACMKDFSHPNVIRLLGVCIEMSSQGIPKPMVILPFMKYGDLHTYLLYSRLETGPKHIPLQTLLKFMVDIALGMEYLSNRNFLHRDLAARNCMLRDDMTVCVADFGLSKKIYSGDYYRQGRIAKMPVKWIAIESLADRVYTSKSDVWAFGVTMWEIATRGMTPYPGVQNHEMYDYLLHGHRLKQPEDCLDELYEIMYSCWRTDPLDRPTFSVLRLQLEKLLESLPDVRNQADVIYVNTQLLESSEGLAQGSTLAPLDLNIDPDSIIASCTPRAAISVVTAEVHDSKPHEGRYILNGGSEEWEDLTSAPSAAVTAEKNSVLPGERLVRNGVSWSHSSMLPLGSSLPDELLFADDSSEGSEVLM
How it was run: as §1

Compound | IC50 (TYRO3) | IC50 (MERTK) | Mer/Flt3 ratio (FLT3 IC50/Mer IC50) (MERTK)
O[C@H]1CC[C@H](c2cnc(OC3CCOCC3)c3cnc(Nc4ccc(-c5nn[nH]n5)cc4)nc32)CC1 [Compound 392] | ≤ 100 nM | ≤ 100 nM | +++ (a ratio of >100)
C[C@H](CC(F)(F)F)Nc1ncc2c(O[C@H]3C[C@@H](O)C3)ncc([C@H]3CC[C@H](O)CC3)c2n1 [Compound 406] | ≤ 100 nM | ≤ 100 nM | +++ (a ratio of >100)
C[C@@H](CC(F)(F)F)Nc1ncc2c(O[C@@H]3C[C@H]4CC[C@@H](C3)N4C[C@@H]3CCCO3)ncc([C@H]3CC[C@H](O)CC3)c2n1 [Compound 421] | ≤ 100 nM | ≤ 100 nM | +++ (a ratio of >100)
C[C@@H](CC(F)(F)F)Nc1ncc2c(O[C@H]3C[C@@H](O)C3)ncc(-c3ccc(C4(C#N)CC4)cc3)c2n1 [Compound 409] | ≤ 100 nM | ≤ 100 nM | ++ (a ratio of between 10 and 100)
